Data: EP0751930B1 (G.D. SEARLE & CO., priority 1994, dated 1995)

Assays:
[1] = target: T1, Recombinant human inducible nitric oxide synthase (hiNOS) (Homo sapiens, UniProt P35228); assay: Citrulline Assay for Nitric Oxide Synthase (hiNOS); assay type: biochemical; details: for IC50: conversion of [3H]-arginine to [3H]-citrulline, 30 µM L-arginine, 37°C, 15 minutes
T1 construct: made in house; host or cells: Sf9 insect cells (recombinant baculovirus)
Description: (§1) Nitric oxide synthase activity was measured by monitoring the conversion of [^3H]-arginine to [^3H]-citrulline. Mouse inducible nitric oxide synthase (miNOS) was prepared from an extract of LPS-treated RAW 264.7 cells and partially purified by DEAE-Sepharose chromatography. Rat brain constitutive nitric oxide synthase (rnNOS) was prepared from an extract of rat cerebellum and partially purified by DEAE-Sepharose chromatography. Enzyme and inhibitors were incubated at 37°C for 15 minutes in a reaction volume of 100 µL with the following components added to start the reaction: 50 mM Tris (pH 7.6), 1 mg/ml bovine serum albumin, 1 mM DTT, 2 mM CaCl2, 10 µM FAD, 10 µM tetrahydrobiopterin, 30 µM L-arginine containing L-[2,3-^3H]-arginine at 300 cpm/pmole and 1 mM NADPH. For constitutive NOS, 50 nM calmodulin was also added. The reaction was terminated by addition of cold stop buffer containing 10 mM EGTA, 100 mM HEPES, pH 5.5 and 1 mM citrulline. [^3H]-Citrulline was separated by chromatography on Dowex 50W X-8 cation exchange resin and radioactivity determined with a liquid scintillation counter.
Recombinant human inducible nitric oxide synthase (hiNOS) was extracted from Sf9 insect cells (infected with recombinant baculoviruses encoding a cDNA for human inducible nitric oxide synthase which has been isolated and purified from a lambda Zapll cDNA library made from RNA isolated from a colon sample from a patient with ulcerative colitis) and partially purified by DEAE-chromatography.

[2] = target: T2, Mouse inducible nitric oxide synthase (miNOS) (Mus musculus, UniProt P29477); assay: Citrulline Assay for Nitric Oxide Synthase (miNOS); assay type: biochemical; details: for IC50: conversion of [3H]-arginine to [3H]-citrulline, 30 µM L-arginine, 37°C, 15 minutes
T2 construct: prepared from an extract of LPS-treated RAW 264.7 cells and partially purified by DEAE-Sepharose chromatography; endogenous in cells; host or cells: LPS-treated RAW 264.7 cells
T2 sequence (P29477 whole entry): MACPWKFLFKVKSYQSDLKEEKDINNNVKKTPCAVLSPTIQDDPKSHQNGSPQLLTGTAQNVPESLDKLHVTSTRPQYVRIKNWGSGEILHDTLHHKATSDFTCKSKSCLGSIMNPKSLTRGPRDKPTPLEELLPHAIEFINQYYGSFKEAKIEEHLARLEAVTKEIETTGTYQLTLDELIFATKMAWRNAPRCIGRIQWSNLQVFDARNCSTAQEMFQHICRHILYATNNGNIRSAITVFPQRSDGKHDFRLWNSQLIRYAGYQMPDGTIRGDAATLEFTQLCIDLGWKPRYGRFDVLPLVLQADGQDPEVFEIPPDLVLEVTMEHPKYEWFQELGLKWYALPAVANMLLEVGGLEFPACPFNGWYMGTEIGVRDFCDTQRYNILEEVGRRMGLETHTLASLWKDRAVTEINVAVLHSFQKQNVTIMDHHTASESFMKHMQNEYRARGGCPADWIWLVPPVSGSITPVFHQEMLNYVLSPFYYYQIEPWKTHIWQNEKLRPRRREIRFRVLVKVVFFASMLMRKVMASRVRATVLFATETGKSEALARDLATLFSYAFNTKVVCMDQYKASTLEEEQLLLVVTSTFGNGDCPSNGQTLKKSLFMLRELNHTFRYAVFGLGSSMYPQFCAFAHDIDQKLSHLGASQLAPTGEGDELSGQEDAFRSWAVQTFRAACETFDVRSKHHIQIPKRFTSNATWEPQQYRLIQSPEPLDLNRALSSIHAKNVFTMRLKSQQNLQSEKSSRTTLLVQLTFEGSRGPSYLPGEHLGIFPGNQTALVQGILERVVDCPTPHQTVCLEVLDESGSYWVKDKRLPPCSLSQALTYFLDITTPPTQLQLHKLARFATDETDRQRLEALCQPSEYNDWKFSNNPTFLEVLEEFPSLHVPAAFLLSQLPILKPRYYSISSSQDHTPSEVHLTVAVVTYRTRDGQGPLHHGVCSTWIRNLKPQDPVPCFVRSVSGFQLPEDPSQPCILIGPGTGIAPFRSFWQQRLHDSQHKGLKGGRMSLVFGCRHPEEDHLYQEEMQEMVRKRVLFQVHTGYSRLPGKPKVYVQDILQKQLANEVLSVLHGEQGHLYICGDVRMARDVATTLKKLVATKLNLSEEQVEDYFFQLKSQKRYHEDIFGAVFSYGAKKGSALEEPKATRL
Description: as §1

[3] = target: T3, Rat brain constitutive nitric oxide synthase (rnNOS) (Rattus norvegicus, UniProt P29476); assay: Citrulline Assay for Nitric Oxide Synthase (rnNOS); assay type: biochemical; details: for IC50: conversion of [3H]-arginine to [3H]-citrulline, 30 µM L-arginine, 50 nM calmodulin added
T3 construct: prepared from an extract of rat cerebellum and partially purified by DEAE-Sepharose chromatography; from tissue; host or cells: rat cerebellum
T3 sequence (P29476 whole entry): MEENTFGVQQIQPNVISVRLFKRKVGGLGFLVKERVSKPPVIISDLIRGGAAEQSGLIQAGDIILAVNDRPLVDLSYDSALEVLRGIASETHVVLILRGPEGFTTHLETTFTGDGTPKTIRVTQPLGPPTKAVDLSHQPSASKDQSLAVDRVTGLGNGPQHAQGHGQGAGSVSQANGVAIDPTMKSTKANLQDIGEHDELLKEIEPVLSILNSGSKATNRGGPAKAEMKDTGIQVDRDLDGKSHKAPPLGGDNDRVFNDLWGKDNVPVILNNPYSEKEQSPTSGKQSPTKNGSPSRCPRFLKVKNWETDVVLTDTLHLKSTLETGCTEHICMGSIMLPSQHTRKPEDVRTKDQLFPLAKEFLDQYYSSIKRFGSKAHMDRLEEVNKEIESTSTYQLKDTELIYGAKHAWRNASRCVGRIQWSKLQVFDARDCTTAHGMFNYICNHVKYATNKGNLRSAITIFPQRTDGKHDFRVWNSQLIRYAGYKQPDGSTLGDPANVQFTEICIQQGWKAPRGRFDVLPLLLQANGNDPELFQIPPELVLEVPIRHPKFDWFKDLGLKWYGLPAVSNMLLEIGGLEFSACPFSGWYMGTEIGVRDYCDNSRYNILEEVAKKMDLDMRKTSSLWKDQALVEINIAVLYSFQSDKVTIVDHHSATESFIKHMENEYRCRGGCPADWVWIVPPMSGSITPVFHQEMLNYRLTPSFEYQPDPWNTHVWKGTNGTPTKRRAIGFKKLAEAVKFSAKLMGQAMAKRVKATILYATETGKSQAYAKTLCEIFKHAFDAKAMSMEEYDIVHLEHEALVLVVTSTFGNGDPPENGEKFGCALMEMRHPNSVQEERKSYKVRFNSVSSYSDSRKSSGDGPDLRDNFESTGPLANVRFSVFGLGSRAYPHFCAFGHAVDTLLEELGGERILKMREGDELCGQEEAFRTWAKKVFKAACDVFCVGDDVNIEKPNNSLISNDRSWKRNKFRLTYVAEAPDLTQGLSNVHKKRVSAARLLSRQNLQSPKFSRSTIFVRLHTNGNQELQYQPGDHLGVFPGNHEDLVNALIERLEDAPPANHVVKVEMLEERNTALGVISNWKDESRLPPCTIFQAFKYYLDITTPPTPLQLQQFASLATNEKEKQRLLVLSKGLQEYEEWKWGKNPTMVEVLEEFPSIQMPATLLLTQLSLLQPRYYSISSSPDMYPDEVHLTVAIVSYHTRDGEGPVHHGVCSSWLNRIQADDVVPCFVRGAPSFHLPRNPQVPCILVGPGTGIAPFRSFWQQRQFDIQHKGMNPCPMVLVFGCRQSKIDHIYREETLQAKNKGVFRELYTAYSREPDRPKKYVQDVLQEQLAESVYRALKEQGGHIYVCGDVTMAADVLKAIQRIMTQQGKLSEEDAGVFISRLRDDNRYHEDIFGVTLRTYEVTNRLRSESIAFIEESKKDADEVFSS
Description: as §1

[4] = system: RAW 264.7 cells; assay: Raw Cell Nitrite Assay; assay type: cell-based; details: Mus musculus, RAW264.7; for IC50: nitrite production by intracellular iNOs, LPS-induced RAW 264.7 cells, L-arginine 30 µM
Description: RAW 264.7 cells are plated to confluency on a 96-well tissue culture plate grown overnight (17h) in the presence of LPS to induce NOS. A row of 3-6 wells were left untreated and served as controls for subtraction of nonspecific background. The media was removed from each well and the cells are washed twice with Krebs-Ringers-Hepes (25mM, pH 7.4) with 2 mg/ml glucose. The cells are then placed on ice and incubated with 50 µL of buffer containing L-arginine (30 µM) +/- inhibitors for lh. The assay is initiated by warming the plate to 37°C in a water bath for lh. Production of nitrite by intracellular iNOs is linear with time. To terminate the cellular assay, the plate of cells is placed on ice and the nitrite-containing buffer removed and analyzed for nitrite using a previously published fluorescent determination for nitrite. All values are the average of triplicate wells and are compared to a background-subtracted induced set of cells (100% value).

Structure (SMILES): CC(=N)NCCCCC(C)(N)C(=O)O (racemic) [Example 2]
- IC50 [1]: 26.6 µM
- IC50 [2]: 7.2 µM
- IC50 [3]: 193 µM
- IC50 [4]: 52.5 µM

Structure (SMILES): CC(=N)NCC[Se]CC(N)C(=O)O (racemic) [Example 3, Nε-iminoethyl-aminoethylselenocysteine]
- IC50 [1]: 35.5 µM
- IC50 [2]: 5 µM
- IC50 [3]: 229 µM
- IC50 [4]: 0.37 µM

Structure (SMILES): CC(=N)NCCCCC(N)(CO)C(=O)O (racemic) [Example 4]
- inhibition at 10 µM ([1]; @ 10 µM, read-out: hiNos Inh.): 39%
- inhibition at 10 µM ([2]; @ 10 µM, read-out: miNOS Inh.): 39%
- inhibition at 10 µM ([3]; @ 10 µM, read-out: rnNOS Inh.): 8.6%
- inhibition at 10 µM ([4]; @ 10 µM, read-out: Raw Cell Inh.): 8.6%

Structure (SMILES): CC(=N)NCCCC(C)(N)C(=O)O (stereo not shown) [Example 1]
- IC50 [1]: 73.5 µM
- IC50 [2]: 34.9 µM
- IC50 [3]: 356 µM
- IC50 [4]: 25 µM
